Experimental data as given in patent US20190365785A1, “INHIBITION OF UNFOLDED PROTEIN RESPONSE FOR SUPPRESSING OR PREVENTING ALLERGIC REACTION TO FOOD” (Children's Hospital Medical Center, priority 2017, published 2019).

How the values were obtained:
CACO-2 cells [1] = assay: Pro-Th2 cytokine expression by CACO-2 cells cultured with EYP, HC, MCT or sodium palmitate, with or without UPR inhibitors; assay type: cell-based, human
Description: To evaluate whether the UPR induces pro-Th2 gene expression in cultured human intestinal epithelial cells, we evaluated the abilities of three UPR inhibitors to inhibit the ability of egg yolk plasma (EYP), heavy cream (HC), medium chain triglycerides (MCT), or sodium palmitate to induce pro-Th2 cytokine expression by CACO-2 cells. CACO-2 cells were cultured for 24 hours with medium alone, EW, negative control, EYP, HC, MCT, or sodium palmitate (positive control for UPR induction), with or without the UPR inhibitors metformin, TUDCA, or 4-PBA. mRNA was prepared, reverse-transcribed, and quantitated by real time PCR. […] CACO-2 cells were obtained from the American Type Culture Collection (ATCC), catalog number HTB-37. These cells were grown in ATCC-formulated Eagle's Minimum Essential Medium (EMEM) (Cat. No. 30-2003), supplemented with fetal bovine serum (FBS) to a final concentration of 20% (ATCC® Cat. No. 30-2020) and Gibco antibiotic-antimycotic mixture. The cells were cultured in 6-well, 12-well, or 24-well culture plates to approximately 85%-90% confluency. On the day of experiment, EMEM medium was prepared with the appropriate concentrations of stimulants and/or inhibitors and added to the cells. Following the period of culture (usually 6 or 24 hours), the cells were washed and lysed, and total RNA was purified using PureLink™ RNA Mini Kit (Thermo Fisher Cat. No. 12183018A). The purified total RNA was used to generate cDNA using a High-Capacity cDNA Reverse Transcription Kit (Applied Biosystems, Cat. No. 4368814). Gene expression was analyzed using the qPCR method with a BioRad My iQ™ Detection system, and compared to the expression of the GAPDH housekeeping gene.

CACO-2 cells [2] = assay: Pro-Th2 cytokine protein production by CACO-2 cells (immunoprecipitation and Western blot); assay type: cell-based, human; conditions: 24 hr, Western blot, FIG. 4
Description: CACO-2 cells were cultured for 24 hr±palmitate or EYP. Cell lysates were prepared and normalized by protein concentration and direct α/β-tubulin Western blot. Lysates were serially incubated with anti-IL-25+protein G beads, anti-IL-33+protein G beads, and anti-TSLP+protein G beads. Laemmli buffer eluates from beads were analyzed by electrophoresis on a 4-20% polyacrylamide gel, blotted onto a PVDF membrane, and visualized by incubation with biotinylated anti-IL-25, anti-IL-33, or anti-TSLP mAb, followed by streptavidin-peroxidase and ECL WB substrate.

[3] = system: human intestinal organoids (HIO); assay: UPR-associated and pro-Th2 cytokine gene expression in human intestinal organoids injected with palmitate ± metformin or TUDCA; assay type: cell-based; conditions: lumen injection, FIG. 6A-6B
Description: HIO were produced from human peripheral blood pluripotent stem cells having a single UPR-associated gene deleted by CRISPR/Cas9. Applicant injected the lumens of HIO with culture medium or palmitate to induce increased UPR-associated and pro-Th2 cytokine gene expression, and further injected the HIO lumens with metformin or TUDCA. mRNA levels for the UPR-associated and pro-Th2 cytokine genes were determined by real-time PCR.

CACO-2 cells [4] = assay: UPR-related and pro-Th2 cytokine gene expression in CACO-2 cells cultured with lipid-free peanut extract ± metformin; assay type: cell-based, human; conditions: CACO-2 cells with peanut extract, treated with metformin
Description: Because the UPR can be induced by multiple mechanisms that are associated with cell stress, including mechanisms that are not associated with lipids, Applicant investigated the ability of aqueous extracts of allergenic foods other than eggs and milk to induce UPR-associated and pro-Th2 cytokine gene expression, and the ability of metformin to suppress these responses. CACO-2 cells were cultured for 24 hours with medium alone or with a lipid-free peanut extract±metformin. mRNA was reverse-transcribed and gene expression was determined by real time PCR.
CACO-2 cells were obtained from the American Type Culture Collection (ATCC), catalog number HTB-37. These cells were grown in ATCC-formulated Eagle's Minimum Essential Medium (EMEM) (Cat. No. 30-2003), supplemented with fetal bovine serum (FBS) to a final concentration of 20% (ATCC® Cat. No. 30-2020) and Gibco antibiotic-antimycotic mixture. The cells were cultured in 6-well, 12-well, or 24-well culture plates to approximately 85%-90% confluency.
On the day of experiment, EMEM medium was prepared with the appropriate concentrations of stimulants and/or inhibitors and added to the cells. […] Gene expression was analyzed using the qPCR method with a BioRad My iQ™ Detection system, and compared to the expression of the GAPDH housekeeping gene.

BALB/c mice = assay: UPR inhibitors in drinking water or oral in mouse model of food (egg) allergy; assay type: in vivo; conditions: for intestinal UPR-related gene expression (except for BiP and ATF6) / intestinal pro-Th2 cytokine expression: 500 mg/kg/day in drinking water, FIG. 15A-15E; for hypothermia / mouse mast cell protease 1 (MMCP1) response / small intestinal UPR-related gene expression (except ATF6) / small intestinal pro-Th2 cytokine gene expression: mice induced to develop food allergy, 500 mg/kg in drinking water, FIG. 14
Description: BALB/c mice were induced to develop food allergy and were then treated with 500 mg/kg doses of metformin or TUDCA in drinking water.
BALB/c mice with established egg allergy were provided with drinking water that contained 500 mg/kg/day of metformin or TUDCA, or with ordinary drinking water. Both metformin and TUDCA suppressed intestinal UPR-related gene expression (except for BiP and ATF6) and pro-Th2 cytokine expression. Note the large increases in intestinal UPR-associated and pro-Th2 gene expression compared to naïve mice, and the partial suppression of UPR-associated and pro-Th2 genes by metformin and TUDCA (FIG. 15E).
BALB/c mice with established egg allergy were administered egg yolk plasma with or without 1 g/kg/day or 2 g/kg/day of metformin. Pro-Th2 cytokine and UPR-related gene expression was inhibited in skin (FIG. 16A) and lung (FIG. 16B).

CACO-2 cells [5] = assay: CACO-2 cells cultured with egg yolk plasma or peanut extract, with or without lipase inhibitor Orlistat; assay type: cell-based, human; conditions: 24 hours, FIG. 3
Description: CACO-2 cells were cultured for 24 hours with medium alone, egg yolk plasma, or peanut extract, with or without the lipase inhibitor Orlistat. mRNA was extracted and reverse transcribed, after which UPR-associated gene expression and pro-Th2 cytokine gene expression were determined by real time PCR. […] CACO-2 cells were obtained from the American Type Culture Collection (ATCC), catalog number HTB-37. These cells were grown in ATCC-formulated Eagle's Minimum Essential Medium (EMEM) (Cat. No. 30-2003), supplemented with fetal bovine serum (FBS) to a final concentration of 20% (ATCC® Cat. No. 30-2020) and Gibco antibiotic-antimycotic mixture. The cells were cultured in 6-well, 12-well, or 24-well culture plates to approximately 85%-90% confluency. On the day of experiment, EMEM medium was prepared with the appropriate concentrations of stimulants and/or inhibitors and added to the cells. Following the period of culture (usually 6 or 24 hours), the cells were washed and lysed, and total RNA was purified using PureLink™ RNA Mini Kit (Thermo Fisher Cat. No. 12183018A). The purified total RNA was used to generate cDNA using a High-Capacity cDNA Reverse Transcription Kit (Applied Biosystems, Cat. No. 4368814). Gene expression was analyzed using the qPCR method with a BioRad My iQ™ Detection system, and compared to the expression of the GAPDH housekeeping gene.

[6] = 24 hours, real time PCR, FIG. 1
[7] = summary statement of Applicant's results

SMILES | suppression of EYP-, HC-, MCT- and palmitate-induced expression of the pro-Th2 cytokines (CACO-2 cells [1]; [6]) | palmitate-induced UPR-associated and pro-Th2 cytokine gene expression [3] | intestinal UPR-related gene expression (except for BiP and ATF6) (BALB/c mice; established egg allergy) | intestinal pro-Th2 cytokine expression (BALB/c mice; established egg allergy) | hypothermia (BALB/c mice) | mouse mast cell protease 1 (MMCP1) response (BALB/c mice) | small intestinal UPR-related gene expression (except ATF6) (BALB/c mice) | small intestinal pro-Th2 cytokine gene expression (BALB/c mice) | established food allergy (BALB/c mice; [7]) | also measured
CCCCCCCCCCCCCCCC(=O)[O-].[Na+] [sodium palmitate] | – | – | – | – | – | – | – | – | – | induction of expression of the pro-Th2 cytokines (CACO-2 cells [1]; 24 hours, stimulant alone, real time PCR, FIG. 1): induced increased expression; pro-Th2 cytokine protein expression (IL-25, IL-33, TSLP) (CACO-2 cells [2]): increase; UPR-dependent induction of pro-Th2 cytokine genes [3]: stimulated
CN(C)C(=N)N=C(N)N [metformin] | strong suppression | suppressed | suppressed | suppressed | suppression | suppression | suppression | suppression | suppresses | pro-Th2 cytokine gene induction by egg and milk lipid fractions and aqueous extracts of peanuts, walnut, codfish (CACO-2 cells [1]; summary, every allergen tested): suppresses pro-Th2 cytokine gene induction in every case; expression of UPR-related genes (CACO-2 cells [4]; FIG. 2 A): reduced expression; expression of pro-Th2 cytokine genes (CACO-2 cells [4]; FIG. 2 B): reduced expression; Pro-Th2 cytokine and UPR-related gene expression in skin (BALB/c mice; established egg allergy, egg yolk plasma, 1 g/kg/day or 2 g/kg/day oral, FIG. 16A): inhibited; Pro-Th2 cytokine and UPR-related gene expression in lung (BALB/c mice; established egg allergy, egg yolk plasma, 1 g/kg/day or 2 g/kg/day oral, FIG. 16B): inhibited; development of food allergy (BALB/c mice; [7]): suppresses
O=C(O)CCCc1ccccc1 [4-PBA, 4-phenylbutyrate] | strong suppression | – | – | – | – | – | – | – | suppresses | –
C[C@H](CCC(=O)NCCS(=O)(=O)O)[C@H]1CC[C@H]2[C@@H]3[C@@H](O)C[C@@H]4C[C@H](O)CC[C@]4(C)[C@H]3CC[C@]12C [TUDCA, tauroursodeoxycholic acid] | strong suppression | suppressed | suppressed | suppressed | suppression | suppression | suppression | suppression | suppresses | –
CCCCCCCCCCC[C@@H](C[C@@H]1OC(=O)[C@H]1CCCCCC)OC(=O)[C@H](CC(C)C)NC=O [Orlistat] | – | – | – | – | – | – | – | – | – | UPR-related or pro-Th2 gene expression by peanut extract (CACO-2 cells [5]): no effect; egg yolk plasma-induced UPR-associated and pro-Th2 cytokine gene expression (CACO-2 cells [5]): suppressed
